Reference: US20050228016A1, “TETRAHYDROQUINOLINES FOR MODULATING THE EXPRESSION OF EXOGENOUS GENES VIA AN ECDYSONE RECEPTOR COMPLEX” (priority 2002, published 2005)

Target: T1, Gal4DBD/AaEcR (DEF) (Aedes aegypti, UniProt P49880)
T1 construct: The wildtype D, E, and F domains from mosquito Aedes aegypti EcR; expressed in transfected cells; host or cells: 3T3 cells
Assay: cell-based
Format: cell-based
Settings: 33 μM; 3T3 cells; 48 h; average of two wells
Experimental: 3T3 cells were trypsinized and plated at 2.5×10^3 cells/well on a 96-well plate. After incubation for 24 h at 37° C. under 5% CO2, cells were transfected with the Gal4DBD/AaEcR (DEF) gene expression cassette and the reporter plasmid, pFRLuc, containing a 5× GAL4 response element and the firefly luciferase gene in serum free media using Superfect (Qiagen). After transfection for 4 h at 37° C., the cells were treated with ligand in serum media. […] Single dose testing was performed at 33 μM.

T1 sequence (P28704 286-520 A311G/G315S/G445S/I449V): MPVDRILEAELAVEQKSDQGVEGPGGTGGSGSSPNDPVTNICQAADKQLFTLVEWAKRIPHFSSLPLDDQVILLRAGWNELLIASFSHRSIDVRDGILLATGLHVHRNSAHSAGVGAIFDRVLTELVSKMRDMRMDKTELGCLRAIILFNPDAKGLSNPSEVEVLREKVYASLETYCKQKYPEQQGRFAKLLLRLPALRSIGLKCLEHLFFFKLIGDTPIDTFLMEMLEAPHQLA
T1 sequence (P49880 405-776): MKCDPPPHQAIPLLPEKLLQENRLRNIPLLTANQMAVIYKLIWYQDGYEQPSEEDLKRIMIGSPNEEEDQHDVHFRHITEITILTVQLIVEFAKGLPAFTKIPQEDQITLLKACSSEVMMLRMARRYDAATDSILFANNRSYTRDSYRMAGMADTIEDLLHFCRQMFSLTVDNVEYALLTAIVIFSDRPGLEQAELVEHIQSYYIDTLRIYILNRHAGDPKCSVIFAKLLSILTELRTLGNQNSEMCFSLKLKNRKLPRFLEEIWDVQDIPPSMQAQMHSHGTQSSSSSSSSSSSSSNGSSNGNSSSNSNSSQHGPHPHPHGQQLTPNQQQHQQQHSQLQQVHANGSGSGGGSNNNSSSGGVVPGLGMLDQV

Compound | Fold Induction Average, AA_3T3V1 Assay 33 μM [fold]
CC1CC(N(C(=O)C(F)(F)F)c2ccccc2)c2ccccc2N1C(=O)C(F)(F)F (stereo not drawn) [Compound I-182] | 1
CCCCCC(=O)N1c2ccccc2C(N(C(=O)c2ccccc2F)c2ccccc2)CC1C (stereo not drawn) [Compound I-186] | 1
Cc1ccc(C(=O)N2c3c(C)cccc3C(Nc3ccccc3C)CC2C)cc1 (stereo not drawn) [Compound I-187] | 1
CC(=O)N(c1ccc(F)cc1)C1CC(C)N(C(=O)c2ccc(C)c(F)c2)c2ccc(F)cc21 (stereo not drawn) [Compound I-195] | 1
Cc1cccc(C(=O)N2c3ccccc3C(Nc3ccccc3)CC2C)c1 (stereo not drawn) [Compound I-198] | 135
CC1CC(Nc2ccccc2)c2ccccc2N1C(=O)c1cccc(F)c1 (stereo not drawn) [Compound I-199] | 147
COc1cccc(C(=O)N2c3ccccc3C(Nc3ccccc3)CC2C)c1 (stereo not drawn) [Compound I-200] | 212
CC1CC(Nc2ccccc2)c2ccccc2N1C(=O)c1cccc(C(F)(F)F)c1 (stereo not drawn) [Compound I-201] | 71
Cc1ccc(NC2CC(C)N(C(=O)c3cccc(F)c3)c3ccc(C)cc32)cc1 (stereo not drawn) [Compound I-203] | 3
COc1cccc(C(=O)N2c3ccc(C)cc3C(Nc3ccc(C)cc3)CC2C)c1 (stereo not drawn) [Compound I-204] | 1
Cc1cccc(C(=O)N2c3ccc(F)cc3C(Nc3ccc(F)cc3)CC2C)c1 (stereo not drawn) [Compound I-206] | 142
CC1CC(Nc2ccc(F)cc2)c2cc(F)ccc2N1C(=O)c1cccc(F)c1 (stereo not drawn) [Compound I-207] | 108
COc1cccc(C(=O)N2c3ccc(F)cc3C(Nc3ccc(F)cc3)CC2C)c1 (stereo not drawn) [Compound I-208] | 989
CC1CC(Nc2ccc(F)cc2)c2cc(F)ccc2N1C(=O)c1cccc(C(F)(F)F)c1 (stereo not drawn) [Compound I-209] | 384
CC1CC(Nc2ccccc2)c2ccccc2N1C(=O)Nc1ccccc1 (stereo not drawn) [Compound I-211] | 638
CC1CC(Nc2ccccc2)c2ccccc2N1C(=O)Nc1ccc(Cl)cc1 (stereo not drawn) [Compound I-212] | 367
CC1CC(Nc2ccccc2)c2ccccc2N1C(=O)Nc1cccc(Cl)c1 (stereo not drawn) [Compound I-213] | 527
Cc1cccc(NC(=O)N2c3ccccc3C(Nc3ccccc3)CC2C)c1 (stereo not drawn) [Compound I-215] | 1052
Cc1ccc(NC2CC(C)N(C(=O)Nc3ccccc3)c3ccc(C)cc32)cc1 (stereo not drawn) [Compound I-216] | 2
Cc1ccc(NC2CC(C)N(C(=O)Nc3ccc(Cl)cc3)c3ccc(C)cc32)cc1 (stereo not drawn) [Compound I-217] | 8
trans-2-methyl-6-fluoro-1-(3-fluoro-4-methylbenzoyl)-4-(4-methylphenylamino), 4-(3-fluoro-4-methylbenzoyl)-1,2,3,4-tetrahydroquinoline [Compound I-196] | 1
